Values of other authors in patent US7625919B2, “4-azasteroid derivatives as androgen receptor modulators” (priority 2002, dated 2009).

Tests used:
[1] = after 7 years of treatment
[2] = postmenopausal osteoporotic women, median of 22 months of treatment

Q: For `NCCCC(O)(P(=O)([O-])O)P(=O)(O)O.O.O.O.[Na+]` [alendronate, (4-amino-1-hydroxybutylidene)-bis-phosphonate monosodium trihydrate], which “increase in spinal BMD” value [1] is on record?
A: Its value is 11%.

Q: Which results are given for “hPTH(1-34): human parathyroid hormone 1-34 fragment (SVSEIQLMHNLGKHLNSMERVEWLRKKLQDVHNF; Parathyroid hormone; UniProt P01270 32-65, looked up, fragment)”?
A: reduction in nonvertebral fractures [2]: 54%; reduction in spine fractures [2]: ≥ 65%
